# Values joined by “and” are separate entries in the source; they are usually repeats but may differ in a detail not shown here. Equal entries are not always repeated. Inconclusive results are not listed.
# Tested on: nude mice, HT29 intrarenal xenograft, tumor weight T/C
# Assay: NCI In Vivo Anticancer Drug Screen. Data for tumor model HT29;CX-1 Human Adenocarcinoma (MER+) (intrarenal inoculation) in NU/NU Swiss (nude) mice
# Conditions: endpoint: mean tumor weight change, higher = larger tumour
# Outline: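 Readout: treated/vehicle-control ratio of the measured endpoint (tumor size or survival) in transplanted-tumor mice.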
# [1] = dose: 300.0 mg/kg/injection, schedule: Q04DX004 (sc), vehicle: Klucel (hydroxypropylcellulose) (HPC)
# [2] = dose: 600.0 mg/kg/injection, schedule: Q04DX004 (sc), vehicle: Klucel (hydroxypropylcellulose) (HPC)
# [3] = dose: 100.0 mg/kg/injection, schedule: Q04DX004 (sc), vehicle: saline
# [4] = dose: 200.0 mg/kg/injection, schedule: Q04DX004 (sc), vehicle: saline
# [5] = dose: 400.0 mg/kg/injection, schedule: Q04DX004 (sc), vehicle: saline
# [6] = dose: 37.5 mg/kg/injection, schedule: Q04DX004 (sc), vehicle: saline with Tween-80
# [7] = dose: 75.0 mg/kg/injection, schedule: Q04DX004 (sc), vehicle: saline with Tween-80
# [8] = dose: 150.0 mg/kg/injection, schedule: Q04DX004 (sc), vehicle: saline with Tween-80
# [9] = dose: 300.0 mg/kg/injection, schedule: Q04DX004 (sc), vehicle: saline with Tween-80
# [10] = dose: 600.0 mg/kg/injection, schedule: Q04DX004 (sc), vehicle: saline with Tween-80
# [11] = dose: 300.0 mg/kg/injection, schedule: Q04DX004 (sc), vehicle: saline
# [12] = dose: 600.0 mg/kg/injection, schedule: Q04DX004 (sc), vehicle: saline
# [13] = dose: 1200.0 mg/kg/injection, schedule: Q04DX004 (sc), vehicle: saline
# [14] = dose: 2400.0 mg/kg/injection, schedule: Q04DX004 (sc), vehicle: saline
smiles,measurement,setting,value
CC(=O)[O][Pb]([O]C(C)=O)([c]1ccccc1)[c]1ccccc1,T/C,"dose: 250.0 mg/kg/injection, schedule: Q04DX004 (sc), vehicle: Klucel (hydroxypropylcellulose) (HPC)",120 % of control
same,T/C,"dose: 500.0 mg/kg/injection, schedule: Q04DX004 (sc), vehicle: Klucel (hydroxypropylcellulose) (HPC)",64 % of control
same,T/C,"dose: 1000.0 mg/kg/injection, schedule: Q04DX004 (sc), vehicle: Klucel (hydroxypropylcellulose) (HPC)",44 % of control
same,T/C,"dose: 2000.0 mg/kg/injection, schedule: Q04DX004 (sc), vehicle: Klucel (hydroxypropylcellulose) (HPC)",118 % of control
C=C1C(C)C2C(Cc3ccccc3)NC(=O)C23C(OC(C)=O)/C=C/C(C)(O)CC(C)C/C=C/C3C1O (configuration not stated),T/C,"dose: 3.13 mg/kg/injection, schedule: Q04DX004 (sc), vehicle: distilled water + Tween-80",42 % of control
same,T/C,"dose: 6.25 mg/kg/injection, schedule: Q04DX004 (sc), vehicle: distilled water + Tween-80",124 % of control
same,T/C,"dose: 12.5 mg/kg/injection, schedule: Q04DX004 (sc), vehicle: distilled water + Tween-80",87 % of control
same,T/C,"dose: 25.0 mg/kg/injection, schedule: Q04DX004 (sc), vehicle: distilled water + Tween-80",63 % of control
CC(C)NC(=O)OCc1c(COC(=O)NC(C)C)c(-c2ccc(Cl)c(Cl)c2)n2c1CCC2,T/C,"dose: 25.0 mg/kg/injection, schedule: Q01DX010 (sc), vehicle: distilled water + Tween-80",107 % of control
same,T/C,"dose: 50.0 mg/kg/injection, schedule: Q01DX010 (sc), vehicle: distilled water + Tween-80",15 % of control
same,T/C,"dose: 200.0 mg/kg/injection, schedule: Q01DX010 (sc), vehicle: distilled water + Tween-80",60 % of control and 78 % of control
same,T/C,"dose: 800.0 mg/kg/injection, schedule: Q01DX010 (sc), vehicle: distilled water + Tween-80",44 % of control
O=C1NC(=O)NC(C(=O)O)N1,T/C,"dose: 50.0 mg/kg/injection, schedule: Q04DX004 (sc), vehicle: Klucel (hydroxypropylcellulose) (HPC)",101 % of control
same,T/C,"dose: 100.0 mg/kg/injection, schedule: Q04DX004 (sc), vehicle: Klucel (hydroxypropylcellulose) (HPC)",67 % of control
same,T/C,"dose: 200.0 mg/kg/injection, schedule: Q04DX004 (sc), vehicle: Klucel (hydroxypropylcellulose) (HPC)",114 % of control
same,T/C,[1],108 % of control
same,T/C,"dose: 400.0 mg/kg/injection, schedule: Q04DX004 (sc), vehicle: Klucel (hydroxypropylcellulose) (HPC)",91 % of control
same,T/C,[2],95 % of control
same,T/C,"dose: 1200.0 mg/kg/injection, schedule: Q04DX004 (sc), vehicle: Klucel (hydroxypropylcellulose) (HPC)",58 % of control
N#CN=[N+]([O-])c1ccc(C(=O)O)cc1,T/C,"dose: 45.0 mg/kg/injection, schedule: Q04DX004 (sc), vehicle: Klucel (hydroxypropylcellulose) (HPC)",60 % of control
c1csc(C[N+]23CN4CN(CN(C4)C2)C3)c1,T/C,[3],76 % of control
same,T/C,[4],97 % of control
same,T/C,[5],61 % of control
CC1=CC(=Nc2ccc(N(CCCl)CCCl)cc2)C=C(C)C1=O,T/C,"dose: 150.0 mg/kg/injection, schedule: Q04DX004 (sc), vehicle: Klucel (hydroxypropylcellulose) (HPC)",71 % of control
same,T/C,[1],76 % of control
same,T/C,[2],53 % of control
Clc1cc(Cl)c(C[N+]23CN4CN(CN(C4)C2)C3)cc1Cl,T/C,[6],85 % of control
same,T/C,[7],95 % of control
same,T/C,[8],68 % of control
CC1=C(/C=C/C(C)=C/C=C/C(C)=C/C=O)C(C)(C)CCC1,T/C,[8],61 % of control
same,T/C,[9],62 % of control
same,T/C,[10],67 % of control
O=C(/C=C(\Cl)C(=O)NO)NO,T/C,"dose: 50.0 mg/kg/injection, schedule: Q04DX004 (sc), vehicle: saline",102 % of control
same,T/C,[3],172 % of control
same,T/C,[4],86 % of control
COc1ccc2c(c1)CCn1c(C)c(COC(=O)NC(C)C)c(COC(=O)NC(C)C)c1-2,T/C,"dose: 300.0 mg/kg/injection, schedule: Q04DX004 (sc), vehicle: distilled water + Tween-80",165 % of control
same,T/C,"dose: 600.0 mg/kg/injection, schedule: Q04DX004 (sc), vehicle: distilled water + Tween-80",191 % of control
CCOC(=O)Nc1cc2c(c(N)n1)N=C(c1ccc(Cl)cc1Cl)CN2,T/C,[6],92 % of control
same,T/C,[7],150 % of control
same,T/C,[8],78 % of control
same,T/C,[9],83 % of control
NCCc1ccc(O)c(O)c1,T/C,"dose: 200.0 mg/kg/injection, schedule: Q01DX010 (sc), vehicle: saline",78 % of control
CC1CN=C(c2ccc(NC(=O)c3ccc(C(=O)Nc4ccc(C5=NCC(C)N5)cc4)cc3)cc2)N1 (configuration not stated),T/C,"dose: 25.0 mg/kg/injection, schedule: Q01DX010 (sc), vehicle: Klucel (hydroxypropylcellulose) (HPC)",65 % of control
same,T/C,"dose: 50.0 mg/kg/injection, schedule: Q01DX010 (sc), vehicle: Klucel (hydroxypropylcellulose) (HPC)",34 % of control
same,T/C,"dose: 100.0 mg/kg/injection, schedule: Q01DX010 (sc), vehicle: Klucel (hydroxypropylcellulose) (HPC)",37 % of control
same,T/C,"dose: 200.0 mg/kg/injection, schedule: Q01DX010 (sc), vehicle: Klucel (hydroxypropylcellulose) (HPC)",44 % of control
Nc1ncnc2c(C3OC(CO)C(O)C3O)[nH]nc12 (configuration not stated),T/C,"dose: 75.0 mg/kg/injection, schedule: Q04DX004 (sc), vehicle: suspension in saline",39 % of control
CCCCCC[C@@H](O)C/C=C\CCCCCCCC(=O)OCCO,T/C,[11],21 % of control
same,T/C,[12],155 % of control
same,T/C,[13],169 % of control
same,T/C,[14],230 % of control
OC(CCl)CN1CC[N+]2(CC1)CC[N+]1(CCN(CC(O)CCl)CC1)CC2 (configuration not stated),T/C,"dose: 32.0 mg/kg/injection, schedule: Q01DX010 (sc), vehicle: water",245 % of control
same,T/C,"dose: 64.0 mg/kg/injection, schedule: Q01DX010 (sc), vehicle: water",59 % of control
same,T/C,"dose: 128.0 mg/kg/injection, schedule: Q01DX010 (sc), vehicle: water",108 % of control
same,T/C,"dose: 256.0 mg/kg/injection, schedule: Q01DX010 (sc), vehicle: water",35 % of control
CC(=O)N(C)O,T/C,[8],88 % of control
same,T/C,[9],71 % of control
same,T/C,[10],45 % of control
CCCCOC(=O)/C=C(\Br)C(=O)OCCCC,T/C,"dose: 250.0 mg/kg/injection, schedule: Q04DX004 (sc), vehicle: saline with Tween-80",69 % of control
same,T/C,"dose: 500.0 mg/kg/injection, schedule: Q04DX004 (sc), vehicle: saline with Tween-80",43 % of control
S=c1[nH]cc2cnccn12,T/C,"dose: 450.0 mg/kg/injection, schedule: Q04DX004 (sc), vehicle: saline with Tween-80",97 % of control
same,T/C,"dose: 900.0 mg/kg/injection, schedule: Q04DX004 (sc), vehicle: saline with Tween-80",107 % of control
same,T/C,"dose: 1800.0 mg/kg/injection, schedule: Q04DX004 (sc), vehicle: saline with Tween-80",117 % of control
CCN(CC)CCCC(C)Nc1c2ccc(Cl)cc2nc2ccc(OC)cc12 (configuration not stated),T/C,"dose: 50.0 mg/kg/injection, schedule: Q01DX010 (sc), vehicle: saline with Tween-80",75 % of control
same,T/C,"dose: 100.0 mg/kg/injection, schedule: Q01DX010 (sc), vehicle: saline with Tween-80",91 % of control
same,T/C,"dose: 200.0 mg/kg/injection, schedule: Q01DX010 (sc), vehicle: saline with Tween-80",38 % of control
C=CCc1cn(C2CC(O)C(CO)O2)c(=O)[nH]c1=O (configuration not stated),T/C,[11],71 % of control
same,T/C,[12],99 % of control
same,T/C,[13],64 % of control
same,T/C,[14],71 % of control
c1ccc2c(NCCCCCCCCNc3c4ccccc4nc4ccccc34)c3ccccc3nc2c1,T/C,"dose: 10.0 mg/kg/injection, schedule: Q01DX010 (sc), vehicle: Klucel (hydroxypropylcellulose) (HPC)",67 % of control
same,T/C,"dose: 20.0 mg/kg/injection, schedule: Q01DX010 (sc), vehicle: Klucel (hydroxypropylcellulose) (HPC)",44 % of control
same,T/C,"dose: 40.0 mg/kg/injection, schedule: Q01DX010 (sc), vehicle: Klucel (hydroxypropylcellulose) (HPC)",82 % of control
COc1ccc(C[C@H](N)C(=O)NC2C(CO)OC(n3cnc4c(N(C)C)ncnc43)C2O)cc1 (some centres not stated),T/C,[3],174 % of control
same,T/C,[4],96 % of control
same,T/C,[5],185 % of control
O=C1C(O)=C(c2ccccc2)C(=O)C(O)=C1c1ccccc1,T/C,"dose: 75.0 mg/kg/injection, schedule: Q04DX004 (sc), vehicle: saline",95 % of control
same,T/C,"dose: 150.0 mg/kg/injection, schedule: Q04DX004 (sc), vehicle: saline",60 % of control
OCCN1CCN(CCCN2c3ccccc3Sc3ccc(C(F)(F)F)cc32)CC1,T/C,"dose: 1.25 mg/kg/injection, schedule: Q01DX010 (sc), vehicle: saline",121 % of control
same,T/C,"dose: 2.5 mg/kg/injection, schedule: Q01DX010 (sc), vehicle: saline",58 % of control
same,T/C,"dose: 5.0 mg/kg/injection, schedule: Q01DX010 (sc), vehicle: saline",118 % of control
same,T/C,"dose: 10.0 mg/kg/injection, schedule: Q01DX010 (sc), vehicle: saline",92 % of control

# — PubChem BioAssay AID206 (DTP/NCI, 2004)
